According to patent US5527781A, “4-O-(aminoglycosyl)- or 4,6-di-O-(aminoglycosyl)-2,5-dideoxy-5,5-difluorostreptamine derivatives” (Zaidan Hojin Biseibutsu Kagaku Kenkyu Kai, priority 1990, dated 1996):
Converted amounts (≈) assume the structure as drawn. Like-named read-outs stand apart in the source and are kept apart here.

Assays:
[1] = tested on: Escherichia coli K-12 LA 290 R55; assay: microbe, parasite or virus in culture; assay type: cell-based; details: K12LA290R55; Escherichia coli K-12 LA 290 R55; resistance mechanism ANT(2"); Mueller-Hinton agar, 37° C
[2] = tested on: Klebsiella pneumoniae 22#3038; assay: MIC, standard serial dilution method; assay type: cell-based; details: resistance mechanism APH(3')-II, ANT(2"), Mueller-Hinton agar, 37° C
[3] = tested on: Staphylococcus aureus Ap01; assay: MIC, standard serial dilution method; assay type: cell-based; details: resistance mechanism ANT(4'), Mueller-Hinton agar, 37° C
[4] = tested on: Pseudomonas aeruginosa GN 315; assay: MIC, standard serial dilution method; assay type: cell-based; details: GN315
[5] = tested on: Escherichia coli JR225; assay: microbe, parasite or virus in culture; assay type: cell-based; details: resistance mechanism AAC(3), Mueller-Hinton agar, 37° C
[6] = tested on: Mycobacterium 607; assay: MIC, standard serial dilution method; assay type: cell-based; details: Mueller-Hinton agar, 37° C
[7] = tested on: Escherichia coli K-12 ML 1629; assay: microbe, parasite or virus in culture; assay type: cell-based; details: K12ML1629
[8] = tested on: Pseudomonas aeruginosa A3; assay: MIC, standard serial dilution method; assay type: cell-based; details: Mueller-Hinton agar, 37° C
[9] = tested on: Escherichia coli K-12; assay: MIC, standard serial dilution method; assay type: cell-based; details: K12
[10] = tested on: Serratia marcescens; assay: MIC, standard serial dilution method; assay type: cell-based; details: Mueller-Hinton agar, 37° C
[11] = tested on: Providencia sp. Pv 16; assay: MIC, standard serial dilution method; assay type: cell-based; details: SP.PV16, resistance mechanism AAC(2'), Mueller-Hinton agar, 37° C
[12] = tested on: Staphylococcus aureus 209P; assay: MIC, standard serial dilution method; assay type: cell-based; details: Mueller-Hinton agar, 37° C
[13] = tested on: Escherichia coli K-12 R5; assay: microbe, parasite or virus in culture; assay type: cell-based; details: K12R5; Escherichia coli K-12 R5; resistance mechanism AAC(6'); Mueller-Hinton agar, 37° C
[14] = tested on: Bacillus subtilis PCI219; assay: MIC, standard serial dilution method; assay type: cell-based; details: Mueller-Hinton agar, 37° C
[15] = tested on: Corynebacterium bovis 1810; assay: MIC, standard serial dilution method; assay type: cell-based; details: Mueller-Hinton agar, 37° C
[16] = tested on: Proteus rettgeri GN 311; assay: MIC, standard serial dilution method; assay type: cell-based; details: Providencia rettgeri, GN311; Proteus rettgeri GN 311; Mueller-Hinton agar, 37° C; read-out: MIC
[17] = in vivo; details: mouse, iv, pH 7
Description: Further, in order to estimate acute toxicity of the compound of the general formula (I) according to this invention, some examples of the compounds of this invention were independently dissolved in water to prepare aqueous solutions (as adjusted to pH 7 by addition of hydrochloric acid). […] The tested compounds of this invention are expressed by the same abbreviations as in Table 1. […] The comparative compounds as tested are also expressed by the same abbreviations as in Table 1.

[18] = Pseudomonas aeruginosa GN 315, resistance mechanism AAC(6'), Mueller-Hinton agar, 37° C, read-out: MIC
[19] = Escherichia coli K-12 ML 1629, resistance mechanism APH(3')-I, Mueller-Hinton agar, 37° C, read-out: MIC
[20] = Escherichia coli K-12, Mueller-Hinton agar, 37° C, read-out: MIC

Structure (SMILES) | MIC [1] | MIC [2] | MIC [3] | MIC [4, 18] | MIC [5] | MIC [6] | MIC [7, 19] | MIC [8] | MIC [9, 20] | MIC [10] | MIC [11] | MIC [12] | MIC [13] | MIC [14] | MIC [15] | MIC ([9]; Escherichia coli) | MIC [16] | LD50 [17] | MIC ([4]; Pseudomonas aeruginosa) | MIC ([7]; Escherichia coli)
NCC[C@H](O)C(=O)N[C@@H]1C[C@H](N)[C@@H](O[C@H]2O[C@H](CN)[C@@H](O)C[C@H]2N)[C@H](F)[C@H]1O[C@H]1O[C@H](CO)[C@@H](O)[C@H](N)[C@H]1O [Compound 5F-TOB-AHB, 1-N-[4-amino-2-(S)-hydroxybutyryl]-5,3'-dideoxy-5-fluorokanamycinB, reference compound] | 0.39 µg/mL (≈ 0.683 µM) | 0.78 µg/mL (≈ 1.37 µM) | 3.12 µg/mL (≈ 5.47 µM) | 1.56 µg/mL (≈ 2.73 µM) | < 0.2 µg/mL | 0.39 µg/mL (≈ 0.683 µM) | 0.39 µg/mL (≈ 0.683 µM) | < 0.2 µg/mL | < 0.2 µg/mL | 3.12 µg/mL (≈ 5.47 µM) | 0.39 µg/mL (≈ 0.683 µM) | – | – | – | – | – | – | – | – | –
NC[C@H]1O[C@H](O[C@@H]2[C@@H](N)C[C@@H](N)[C@H](O[C@H]3O[C@H](CO)[C@@H](O)[C@H](N)[C@H]3O)C2(F)F)[C@H](O)[C@@H](O)[C@@H]1O [Compound 5FF-KMA, 5-deoxy-5,5-difluorokanamycin A] | 12.5 µg/mL (≈ 24.8 µM) | – | 50 µg/mL (≈ 99.1 µM) | > 100 µg/mL | 1.56 µg/mL (≈ 3.09 µM) | 3.12 µg/mL (≈ 6.18 µM) | > 100 µg/mL | 6.25 µg/mL (≈ 12.4 µM) | – | 12.5 µg/mL (≈ 24.8 µM) | 12.5 µg/mL (≈ 24.8 µM) | 3.12 µg/mL (≈ 6.18 µM) | > 100 µg/mL | 0.78 µg/mL (≈ 1.55 µM) | 12.5 µg/mL (≈ 24.8 µM) | 0.78 µg/mL (≈ 1.55 µM) | 1.56 µg/mL (≈ 3.09 µM) | > 300 mg/kg | – | –
NC[C@H]1O[C@H](O[C@@H]2[C@@H](N)C[C@@H](N)[C@H](O[C@H]3O[C@H](CO)[C@@H](O)[C@H](N)[C@H]3O)C2(F)F)[C@H](N)[C@@H](O)[C@@H]1O [Compound 5FF-KMB, 5-deoxy-5,5-difluorokanamycin B] | 3.12 µg/mL (≈ 6.2 µM) | – | 50 µg/mL (≈ 99.3 µM) | > 100 µg/mL | 3.12 µg/mL (≈ 6.2 µM) | 1.56 µg/mL (≈ 3.1 µM) | > 100 µg/mL | 3.12 µg/mL (≈ 6.2 µM) | 0.39 µg/mL (≈ 0.775 µM) | 6.25 µg/mL (≈ 12.4 µM) | 12.5 µg/mL (≈ 24.8 µM) | 0.78 µg/mL (≈ 1.55 µM) | 100 µg/mL (≈ 199 µM) | 0.39 µg/mL (≈ 0.775 µM) | 1.56 µg/mL (≈ 3.1 µM) | – | 0.39 µg/mL (≈ 0.775 µM) | – | – | –
NC[C@@H]1CC[C@@H](N)[C@@H](O[C@H]2[C@H](O)[C@@H](O[C@H]3O[C@H](CO)[C@@H](O)[C@H](N)[C@H]3O)[C@H](N)C[C@@H]2N)O1 [DKB, 3',4'-dideoxy-kanamycin B, reference compound] | – | 50 µg/mL (≈ 111 µM) | – | – | – | – | – | – | 0.39 µg/mL (≈ 0.864 µM) | – | – | – | – | < 0.2 µg/mL | – | – | < 0.2 µg/mL | – | 100 µg/mL (≈ 221 µM) | –
NCC[C@H](O)C(=O)N[C@@H]1C[C@H](N)[C@@H](O[C@H]2O[C@H](CN)CC[C@H]2N)[C@H](O)[C@H]1O[C@H]1O[C@H](CO)[C@@H](O)[C@H](N)[C@H]1O [HBK, 1-N-[4-amino-(S)-2-hydroxybutyryl]-3',4'-dideoxykanamycin B, reference compound] | – | – | – | – | – | – | – | – | – | – | – | – | – | – | – | – | – | 70 mg/kg | – | –
NC[C@H]1O[C@H](O[C@H]2[C@H](O)[C@@H](O[C@H]3O[C@H](CO)[C@@H](O)[C@H](N)[C@H]3O)[C@H](N)C[C@@H]2N)[C@H](N)[C@@H](O)[C@@H]1O [KMB, kanamycin B, reference compound] | – | > 100 µg/mL | – | – | – | – | > 100 µg/mL | 1.56 µg/mL (≈ 3.23 µM) | 0.39 µg/mL (≈ 0.807 µM) | – | 12.5 µg/mL (≈ 25.9 µM) | 0.39 µg/mL (≈ 0.807 µM) | – | < 0.2 µg/mL | – | – | 0.2 µg/mL (≈ 0.414 µM) | – | – | –
NC[C@H]1O[C@H](O[C@H]2[C@H](O)[C@@H](O[C@H]3O[C@H](CO)[C@@H](O)[C@H](N)[C@H]3O)[C@H](N)C[C@@H]2N)[C@H](N)C[C@@H]1O [TOB, 3'-deoxykanamycin B, reference compound] | 12.5 µg/mL (≈ 26.7 µM) | 12.5 µg/mL (≈ 26.7 µM) | 12.5 µg/mL (≈ 26.7 µM) | 25 µg/mL (≈ 53.5 µM) | – | 0.39 µg/mL (≈ 0.834 µM) | – | – | 0.39 µg/mL (≈ 0.834 µM) | 3.12 µg/mL (≈ 6.67 µM) | 6.25 µg/mL (≈ 13.4 µM) | < 0.2 µg/mL | 25 µg/mL (≈ 53.5 µM) | < 0.2 µg/mL | 1.56 µg/mL (≈ 3.34 µM) | – | 0.39 µg/mL (≈ 0.834 µM) | ~80 mg/kg | – | 0.78 µg/mL (≈ 1.67 µM)
